By EC50 is commonly meant the concentration needed to bring the measured effect to its halfway point. A word on the Cmax: it is the maximum level reached in the sampled fluid or tissue. By Tmax is commonly meant the time from dosing to the highest level. One may read the microsomal CLint as the capacity of the preparation to metabolise the compound, expressed as a volume cleared per time.

The record followed here is US20260209218A1, “3-PHENYLQUINAZOLINONES AS NOVEL ANTI-CANCER THERAPY” (HELMHOLTZ ZENTRUM MÜNCHEN - DEUTSCHES FORSCHUNGSZENTRUM FÜR …, priority 2022, published 2026).

The test system of data set [1] is Pfa1 Gpx4^KO cells overexpressing FSP1. Put plainly: Cell viability assay (AquaBluer), ferroptosis induction. Conditions: FIG. 1A; rescued by liproxstatin-1. In kind it is cell-based. How it is done: (§1) Cells were seeded on 96-well plates and cultured overnight. On the next day, the medium was changed to medium containing following compounds: RSL3, ML210, erastin, FIN56, FINO2, BSO, iFSP1, icFSP1, Lip-1, DFO, Fer-1, zVAD, Nec-1s, MCC950, olaparib, STS, TNFa, Smac mimic or nigericin at the indicated concentrations. For TAM and Dox treatment, cells were seeded with compounds at the same time. Cell viability was determined 1 h (for nigericin), 24-48 h (for RSL3, ML210, erastin, FIN56, FINO2, iFSP1, icFSP1, STS, TNFa, Smac mimic, and zVAD) or 72 h (for BSO, icFSP1, TAM, and Dox) after the treatment using AquaBluer (MultiTarget Pharmaceuticals, Cat #6015) as an indicator of viable cells according to the manufacturer's protocols. For apoptosis induction, HT-1080 cells were incubated with different concentrations of STS for 24 h. For necroptosis induction, HT-29 cells were incubated with different concentrations of TNFa with Smac mimic (400 nM), and zVAD (30 μM) for 24 h. […] As readout fluorescence was measured at Ex/Em=540/590 nm using a SpectraMax M5 microplate reader with SoftMax Pro v7 (Molecular devices) after 4 hours of incubation in normal cell culture conditions. The relative cell viability (%) was calculated as follows: (fluorescence (FL) of samples−background)/(FL of appropriate control samples−background)×100.

The test system of the next data set is HT-1080 wild type cells. The description is as above. Conditions: FIG. 1B; rescued by liproxstatin-1. In kind it is cell-based, human. How it is done: as §1
For a further data set, the target named is T1, hFSP1 (Homo sapiens, UniProt Q9BRQ8).
T1 construct: expressed in transfected cells; host or cells: Gpx4 KO isogenic fibroblasts (Pfa1, mouse) overexpressing hFSP1
T1 sequence (Q9BRQ8 1-373): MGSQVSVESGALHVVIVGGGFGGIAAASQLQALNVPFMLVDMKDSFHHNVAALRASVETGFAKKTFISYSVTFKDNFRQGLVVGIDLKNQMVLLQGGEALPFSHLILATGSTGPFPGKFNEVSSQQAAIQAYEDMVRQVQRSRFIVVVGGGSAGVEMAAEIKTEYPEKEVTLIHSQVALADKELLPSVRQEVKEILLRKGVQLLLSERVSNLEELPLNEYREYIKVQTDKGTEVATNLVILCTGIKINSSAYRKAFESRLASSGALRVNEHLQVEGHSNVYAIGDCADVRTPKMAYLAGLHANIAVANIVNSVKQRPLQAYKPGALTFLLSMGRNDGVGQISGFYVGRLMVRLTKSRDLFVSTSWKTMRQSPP
Put plainly: Dose-response of screening hits, cell survival by Aquabluer in hFSP1 GPX4 KO cells. It counts as cell-based. Conditions: FSP1 overexpressing cells lacking GPX4. As for the experimental part: To identify new small molecule inhibitors that induce ferroptosis in FSP1 overexpressing cells lacking GPX4, hFSP1 GPX4 KO as well as FSP1 GPX4 wild type (WT) isogenic fibroblasts were screened using a subtractive high throughput screening (HTS) approach. As such, both cell lines were plated in parallel and screened against HMGU libraries at a fixed concentration of 10 μM. Cell survival was evaluated using the LIVE/DEAD assay Aquabluer. The percentage (%) of viable cells was determined for both wild type (WT) and knockout (KO) cell lines. Hits were considered as compounds that induce ferroptosis in KO but not in WT cells. Subsequently, positive hits were assayed in a dose-response manner to establish EC50 values of respective compounds (see Table 2).

Data set [2] in a line: Pharmacokinetics after a single intraperitoneal dose, plasma by LC-MS/MS. Particulars: mouse, IP, 10 mg/kg. It counts as in vivo, male Balb/cAnN mice. As for the experimental part: The purpose of this study was to determine the pharmacokinetic characteristics of compound 13 in male Balb/cAnN mice following intraperitoneal (IP) administration. Levels of the test compound were determined by LC-MS/MS in the blood plasma samples over time after a single dose.
Study design, animal selection, handling and treatment were all in accordance with the Enamine PK study protocols and Institutional Animal Care and Use Guidelines (BACUC approval number #HC-PK-10112023). Animal treatment and samples preparation were conducted by the Animal Laboratory personnel at Enamine/Bienta. Male Balb/cAnN mice (10 weeks old, body weight ranged from 19.6 g to 23.3 g and average body weight across all groups 21.0 g, SD=0.9 g) were used in this study. The animals were randomly assigned to the treatment groups before the pharmacokinetic study; all animals were fasted for 4 h before dosing. Six sampling time points (5, 15, 30, 60, 120, and 360 min) were set for this pharmacokinetic study. Each of the time point treatment group included 4 animals. There was also a control group of one vehicle-dosed animal. Dosing was done according to the treatment Schedules outlined in Table 5. Mice were injected IP with 2,2,2-tribromoethanol at the dose of 150 mg/kg prior to drawing the blood. Blood collection was performed from the orbital sinus in microtainers containing K3EDTA. Animals were sacrificed by cervical dislocation after the blood samples collection. Blood samples were centrifuged for 10 min at 3000 rpm. All samples were immediately processed, flash-frozen and stored at −70° C. until subsequent analysis.
Plasma samples (40 μl) were mixed with 200 μl of IS(90) solution. After mixing by pipetting and centrifuging for 4 min at 6000 rpm, 0.25 μl of each supernatant was injected into LC-MS/MS system.
Analyses of plasma samples were conducted by the Bioanalytical Laboratory personnel at Enamine/Bienta. The concentrations of 13 in samples were determined using high performance liquid chromatography/tandem mass spectrometry (HPLC-MS/MS). Shimadzu HPLC system comprised 2 isocratic pumps LC-10ADvp, an autosampler SIL-20AC, a sub-controller FCV-14AH and a degasser DGU-14A. Mass spectrometric analysis was performed using an API 3000 (triple-quadrupole) instrument from AB Sciex (Canada) with an electro-spray (ESI) interface. The data acquisition and system control were performed using Analyst 1.6.3 software from AB Sciex.
The concentrations of the test compound below the lower limit of quantitation (LLOQ=100 ng/ml) were designated as zero. The pharmacokinetic data analysis was performed using noncompartmental, bolus injection or extravascular input analysis models in WinNonlin 5.2 (PharSight). Data below LLOQ were presented as missing to improve the validity of T½ calculations.

A short description of data set [3]: Microsomal stability, mouse liver microsomes. It counts as in vitro ADME. Particulars: Balb/c, pH 7.4, 0.42 mg microsomal protein per ml, 37° C., five time points over 40 minutes. As for the experimental part:
(§2) The objective of this study was to determine metabolic stability of 4 test articles and reference compounds in human and mouse liver microsomes at five time points over 40 minutes using HPLC-MS. Metabolic stability is defined as the percentage of parent compound lost over time in the presence of a metabolically active test system.
(§3) Microsomal incubations were carried out in 96-well plates in 5 aliquots of 30 μL each (one for each time point). Liver microsomal incubation medium comprised of phosphate buffer (100 mM, pH 7.4), MgCl2 (3.3 mM), NADPH (3 mM), glucose-6-phosphate (5.3 mM), glucose-6-phosphate dehydrogenase (0.67 units/ml) with 0.42 mg of liver microsomal protein per ml. In the control reactions, the NADPH-cofactor system was substituted with phosphate buffer. Test compounds (2 μM, final solvent concentration 1.6%) were incubated with microsomes at 37° C., shaking at 100 rpm. Five time points over 40 minutes were analyzed. The reactions were stopped by adding 5 volumes of acetonitrile with internal standard to incubation aliquots, followed by protein sedimentation by centrifuging at 5500 rpm for 5 minutes. Each reaction was performed in duplicates. Supernatants were analyzed using the HPLC system coupled with a tandem mass spectrometer.
(§4) The elimination constant (kel), half-life (t1,2), and intrinsic clearance (Clint) were determined in a plot of In(AUC) versus time, using linear regression analysis:^1
In general terms: Microsomes from liver hold many membrane-bound enzymes, among them those of drug oxidation.

The nature of data set [4]: Microsomal stability, human liver microsomes. Conditions: pH 7.4, 0.42 mg microsomal protein per ml, 37° C., five time points over 40 minutes. In kind it is in vitro ADME. How it is done: as §2, §3, §4

As to `COc1cc(CC(=O)Nc2ccc(-n3c(C)nc4ccccc4c3=O)cc2)cc(OC)c1OC` [Compound 1], the “ferroptosis induction (cell death, AquaBluer)” value (in data set [1]; in the data set with HT-1080 wild type cells) was “efficiently induces ferroptosis” throughout. Also, at hFSP1, the concentration for a half-maximal effect (EC50) is less than 1000 nM.
With `Cc1nc2ccccc2c(=O)n1-c1ccc(NC(=O)Cc2ccccc2)cc1` [Compound 13, N-(4-(2-methyl-4-oxoquinazolin-3(4H)-yl)phenyl)-2-phenylacetamide], the “plasma concentration relative to the EC50 value” in data set [2] (based on the total drug concentration) came out at 10 fold. Also, in data set [2] (male, Balb/cAnN, plasma), the Cmax was 10200 ng/mL and the Tmax was 0.25 h. Besides, in data set [2] (male, Balb/cAnN, plasma, read-out: AUC0→t = 60 min (AUClast) (converted)), the AUC(0-t) was 30000 ng·h/mL. Further, the AUC(0-inf) in data set [2] (male, Balb/cAnN, plasma, read-out: AUC0→∞ (AUCINF_obs) (converted)) was 33500 ng·h/mL. In data set [2] (male, Balb/cAnN, plasma, read-out: MRT (MRTinf) (converted)), the MRT inf was 2.52 h. In addition, the MRT last in data set [2] (male, Balb/cAnN, plasma, read-out: MRT (MRTlast) (converted)) was 1.78 h. Moreover, in data set [2] (male, Balb/cAnN, plasma, read-out: T1/2 (HL_Lambda_z)), the half-life was found to be 1.9 h. In data set [2] (plasma), the “Kel (Lambda_z)” value is 0.00608 min⁻¹. Besides, the 50% effective concentration (EC50) on hFSP1 was greater than 1000 nM. This compound also registered a microsomal CLint at 2 μM in data set [3] of 6 µL/min/mg. Also, the microsomal CLint at 2 μM in data set [4] was 12 µL/min/mg.
As to `Cc1nc2cc(F)c(F)cc2c(=O)n1-c1ccc(NC(=O)Cc2ccc(C(F)(F)F)cc2)cc1` [Compound 74], the EC50 at hFSP1 is less than 1000 nM. For the same compound, the intrinsic clearance (microsomal CLint) at 2 μM in data set [3] and in data set [4] was 7 µL/min/mg throughout.
`Cc1nc2cc(F)c(F)cc2c(=O)n1-c1ccc(NC(=O)Cc2ccccc2)cc1` [Compound 82]: the concentration giving a half-maximal response (EC50) at hFSP1 was less than 1000 nM. The figures for the microsomal CLint at 2 μM in data set [3] and in data set [4] were 15 µL/min/mg and 4 µL/min/mg, respectively.
